In patent US20080125451A1, “VINORELBINE DERIVATIVES” (AMR TECHNOLOGY, INC., priority 2006, published 2008):

Test system: HeLa Cells
Assay: HeLa GI50 determination (SRB growth inhibition)
Format: cell-based
Settings: 48 h; human cervical carcinoma cell line HeLa S-3; 2 days of treatment; sulforhodamine B staining
Experimental: A. HeLa GI50 Determinations
Growth inhibition (GI50) values were measured on the human cervical carcinoma cell line, HeLa S-3, which were selected for growth on plastic. The HeLa cell assay was based on the description of Skehan et al., J. Natl. Cancer Inst., 82:1107-12 (1990), which is hereby incorporated by reference in its entirety. HeLa cells were plated at 2×10^4 cells/well in 96 well plates. One day later, a control plate was fixed by the addition of TCA to 5%. After five rinses with tap water, the plate was air-dried and stored at 4° C. Test compounds were added to the remaining plates at 10-fold dilutions. Two days later, all plates were fixed as described above. Cells were then stained by the addition of 100 μL per well of 0.4% sulforhodamine B (SRB) in 1% acetic acid for 30 min at 4° C. Wells were then quickly rinsed 5× with 1% acetic acid and allowed to air dry. The SRB was then solubilized by the addition of 100 μL per well of unbuffered 10 mM Tris base. Dye was quantified by measuring absorbance at 490 nm on a Molecular Devices microplate reader. Growth inhibition was calculated according to the following equation: GI=100×(T−T0)/(C−T0), where the optical density (OD) of the test well after 2 days of treatment was T, the OD of the wells in the control plate on day 0 was T0 and C was the OD of untreated wells. […]

CCc1ccc2[nH]c3c(c2c1)CN1CC(C(C)(F)F)C[C@@H](C1)C[C@]3(C(=O)OC)c1cc2c(cc1OC)N(C)[C@H]1[C@@](O)(C(=O)OC)[C@H](OC(C)=O)[C@]3(CC)C=CCN4CC[C@]21[C@@H]43 (some centres unmarked) [Example 3, 11′-Ethylvinflunine]
GI50: 0.17 µM

CC[C@]12C=CCN3CC[C@@]4(c5cc([C@@]6(C(=O)OC)C[C@H]7CC(C(C)(F)F)CN(Cc8c6[nH]c6ccc(SC)cc86)C7)c(OC)cc5N(C)[C@H]4[C@@](O)(C(=O)OC)[C@@H]1OC(C)=O)[C@@H]32 (some centres unmarked) [Example 12, 11′-(Methylsulfanyl)vinflunine]
GI50: 0.00693 µM
